This is an account of results in ChEMBL document CHEMBL1150924, “Triterpenes and saponins from Rudgea viburnioides” (J Nat Prod, 1998).

What all share (assay type): functional, organism-based
Assay [1] has as its system Cladosporium cladosporioides. The assay is described as follows: Antifungal activity against Cladosporium cladosporioides at 5 ug by TLC bioassay.
The test system of assay [2] is Cladosporium cladosporioides. Put plainly: Antifungal activity against Cladosporium cladosporioides at 1 ug by TLC bioassay.
Assay [3] has as its system Cladosporium cladosporioides. The assay is described as follows: Antifungal activity against Cladosporium cladosporioides at 50 ug by TLC bioassay.

Calls of active or inactive are those of the source. The calls are words filed in the database; no cut-off is given here.

For the compound NYSTATIN, the outcome in assay [1] was Active.

Consider `Clc1ccc(COC(Cn2ccnc2)c2ccc(Cl)cc2Cl)c(Cl)c1` (stereo not drawn), for which the outcome in assay [2] was Active.

For `C[C@@H]1CC[C@]2(C)CC[C@]3(C)C(=CC[C@@H]4[C@@]5(C)C[C@@H](O)[C@H](O)C(CO)(CO)[C@@H]5CC[C@]43C)[C@@H]2[C@]1(C)O`, in assay [3], the outcome was Active.
